Experimental data published in the supplement of paper PMC10307832.

What was measured:
Experiment in all cases: relative viability (nuclei count vs DMSO), 5 days (fraction); higher = more cells survive
[1] = compound: Cn1nnc2c(C(N)=O)ncn2c1=O [Temozolomide] + N=C(N)NC(=N)NCCc1ccccc1 [Phenformin] (partner 250 µM)
In short: (§1)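 After 5 days of treatment, lung cancer cells in 1536-well plates were fixed and stained in a single step (final 0.05% Triton X-100, 1% formaldehyde, 1 ug/ml Hoechst) and their nuclei counted on 4× images. Treatment had been applied by pin tool the day after seeding as one drug alone or as a fixed anchor-drug dose with five library-drug doses (not always all listed) in √10 steps. Relative viability is the nuclei count of treated wells divided by that of vehicle wells, and values are medians of duplicate plates.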

[2] = compound: Cn1nnc2c(C(N)=O)ncn2c1=O [Temozolomide] + CCNC(=O)c1noc(-c2cc(C(C)C)c(O)cc2O)c1-c1ccc(CN2CCOCC2)cc1 [Luminespib] (partner 0.01 µM)
In short: as §1

AZD5582 + Lapatinib = compound: C[C@@H](C(=O)N[C@@H](C1CCCCC1)C(=O)N2CCC[C@H]2C(=O)N[C@@H]3[C@@H](CC4=CC=CC=C34)OCC#CC#CCO[C@@H]5CC6=CC=CC=C6[C@@H]5NC(=O)[C@@H]7CCCN7C(=O)[C@H](C8CCCCC8)NC(=O)[C@H](C)NC)NC [AZD5582] + CS(=O)(=O)CCNCc1ccc(-c2ccc3ncnc(Nc4ccc(OCc5cccc(F)c5)c(Cl)c4)c3c2)o1 [Lapatinib] (partner 2 µM)
In short: as §1

[3] = compound: Cn1nnc2c(C(N)=O)ncn2c1=O [Temozolomide] + CC(=O)c1c(C)c2cnc(Nc3ccc(N4CCNCC4)cn3)nc2n(C2CCCC2)c1=O [Palbociclib] (partner 0.5 µM)
In short: as §1

Cell Line	relative viability ([1]; first compound 0.2 µM)	relative viability ([1]; first compound 0.6325 µM)	relative viability ([1]; first compound 2 µM)	relative viability ([1]; first compound 6.325 µM)	relative viability ([1]; first compound 20 µM)	relative viability ([2]; first compound 0.2 µM)	relative viability ([2]; first compound 0.6325 µM)	relative viability ([2]; first compound 2 µM)	relative viability ([2]; first compound 6.325 µM)	relative viability ([2]; first compound 20 µM)	relative viability (AZD5582 + Lapatinib; first compound 0.001581 µM)	relative viability (AZD5582 + Lapatinib; first compound 0.005 µM)	relative viability (AZD5582 + Lapatinib; first compound 0.01581 µM)	relative viability (AZD5582 + Lapatinib; first compound 0.05 µM)	relative viability ([3]; first compound 0.2 µM)	relative viability ([3]; first compound 0.6325 µM)	relative viability ([3]; first compound 2 µM)	relative viability ([3]; first compound 6.325 µM)	relative viability ([3]; first compound 20 µM)
LU99A	0.983	0.8	0.865	0.68	0.803	0.265	0.312	0.288	0.23	0.225	1.15	1.28	0.923	1.17	0.447	0.42	0.472	0.387	0.388
SW 1573	0.348	0.384	0.457	0.367	0.348	0.295	0.331	0.273	0.206	0.28	0.954	1.28	1.24	1.09	0.502	0.44	0.467	0.4	0.429
COR-L23	0.511	0.475	0.437	0.462	0.428	0.639	0.669	0.737	0.696	0.612	0.982	1.08	1.07	1.1	0.383	0.398	0.311	0.266	0.269
NCI-H23	0.868	0.853	0.789	0.784	0.791	0.223	0.208	0.229	0.21	0.237	0.664	0.951	0.783	0.652	0.59	0.55	0.504	0.403	0.433
NCI-H1944	0.219	0.183	0.233	0.19	0.2	0.59	0.829	0.907	0.729	0.711	0.767	0.961	0.82	0.882	0.335	0.341	0.345	0.341	0.298
NCI-H322M		0.821	0.811	0.769	0.574		0.935	0.968	0.786	0.712	0.678	0.796	0.619	0.774	0.451	0.483	0.465	0.441	0.414
EMC-BAC-2	0.604	0.479	0.586	0.458	0.564	1.11	1.18	1.21	1.12	1.23	0.782	0.903	0.865	0.564	0.563	0.534	0.542	0.511	0.514
NCI-H3122	0.394	0.378	0.385	0.376	0.369	0.0795	0.105	0.125	0.0851	0.0839	0.966	1.1	1.05	0.413	0.206	0.202	0.175	0.174	0.153
NCI-H520	0.589	0.548	0.675	0.499	0.589	0.216	0.216	0.234	0.222	0.21	0.738	0.945	0.818	1.01	0.215	0.225	0.228	0.278	0.243
HARA	0.446	0.493	0.401	0.414	0.394	0.681	0.801	0.835	0.788	0.697	0.789	0.943	0.756	0.698		0.307	0.303	0.302	0.233
NCI-H1650	0.458	0.468	0.446	0.424	0.311	0.187	0.205	0.178	0.189	0.217	0.587	0.832	0.581	0.37	0.339	0.406	0.362	0.355	0.28
NCI-H358	0.21	0.425	0.367	0.296	0.257		0.271	0.485	0.347	0.404	0.484	0.566	0.477	0.452	0.137	0.143	0.128	0.136	0.131
NCI-H2347	0.34	0.376	0.378	0.387	0.607	0.417	0.414	0.608	0.488	0.322	0.882	0.944	0.818	0.712	0.442	0.473	0.388	0.408	0.474
UMC-11	0.378	0.357	0.378	0.326	0.301	1.05	1.07	1.17	0.971	0.66	0.89	0.976	0.851	1.01	0.312	0.38	0.3	0.286	0.321
NCI-H2009	0.521	0.482	0.534	0.402	0.487	1.08	1.04	1.02	0.971	0.983	0.632	0.861	0.452	0.62	0.274	0.217	0.238	0.224	0.225
NCI-H1437	0.346	0.348	0.378	0.289	0.34	1.1	1.09	1.12	1.12	1.11	0.616	0.759	0.687	0.72	0.292	0.336	0.31	0.329	0.325
NCI-H647	0.624	0.626	0.593	0.463	0.208	0.17	0.174	0.197	0.114	0.0944	0.839	0.943	0.98	0.767	0.374	0.502	0.375	0.342	0.188
